Results on eleven molecules are retold here after US6531606B1, “Pharmaceutical compositions incorporating aryl substituted olefinic amine compounds” (Targacept, Inc., priority 1997, dated 2003).

Counter-ions that a name gives are not always drawn. Like-named read-outs stand apart in the source and are kept apart here.

In data set [1] the target is T1, muscle receptors (nicotinic receptors of human muscle) (Homo sapiens, UniProt P02708+P07510+Q07001).
T1 construct: endogenous in cells; host or cells: cell preparations derived from muscle
Kind of data set: Determination of interaction with muscle. The data set is classed as cell-based. The note with it: maximal activation (Emax) as percentage of maximal activation induced by (S)-(-)-nicotine. An excerpt: The compounds of the present invention, when employed in effective amounts in accordance with the method of the present invention, lack the ability to elicit activation of nicotinic receptors of human muscle to any significant degree. […] Generally, typical compounds useful in carrying out the present invention activate isotopic rubidium ion flux by less than 20 percent, often by less than 15 percent, and frequently by less than 10 percent, of that elicited by an equal molar amount of (S)-(−)-nicotine.
The determination of the interaction of the compounds with muscle receptors was carried out in accordance with the techniques described in U.S. Pat. No. 5,597,919 to Dull et al., the subject matter of which is already incorporated herein by reference in its entirety. […] The maximal activation for individual compounds (Emax) was determined as a percentage of the maximal activation induced by (S)-(−)-nicotine.

Data set [2] addresses T2, ganglionic receptors (ganglionic-type nicotinic receptors) (Rattus norvegicus, UniProt P04757+P12392).
T2 construct: endogenous in cells; host or cells: cell preparations derived from the adrenal gland
Kind of data set: Determination of interaction with ganglia. The format is cell-based. The note with it: maximal activation (Emax) as percentage of maximal activation induced by (S)-(-)-nicotine. An excerpt:
By this is meant that a particular dose of compound resulting in prevention and/or treatment of a CNS disorder is essentially ineffective in eliciting activation of certain ganglionic-type nicotinic receptors. […] As such, the compounds of the present invention have poor ability to cause isotopic rubidium ion flux through nicotinic receptors in cell preparations derived from the adrenal gland. Generally, the compounds useful in the present invention activate isotopic rubidium ion flux by less than 25 percent, often by less than 15 percent, frequently by less than 10 percent, and even essentially 0 percent, of that elicited by an equal molar amount of (S)-(−)-nicotine.
The determination of the interaction of the compounds with ganglionic receptors was carried out in accordance with the techniques described in U.S. Pat. No. 5,597,919 to Dull et al., the subject matter of which is already incorporated herein by reference in its entirety. […] The maximal activation for individual compounds (Emax) was determined as a percentage of the maximal activation induced by (S)-(−)-nicotine.

In data set [3] the target is T3, high affinity CNS nicotinic receptors (Rattus norvegicus, UniProt P09483+P12390).
T3 construct: from tissue
Kind of data set: biochemical. The note with it: calculated from IC50 values using the method of Cheng et al. The format is binding.

Data set [4] relates to CNS nicotinic receptors (dopamine release). Kind of data set: Determination of dopamine release. The format is cell-based. The note with it: for Emax: read-out: Dopamine Release Emax.
Where [5] appears, read: read-out: Dopamine Release EC50 (nM).

T1 sequence (P02708 21-457): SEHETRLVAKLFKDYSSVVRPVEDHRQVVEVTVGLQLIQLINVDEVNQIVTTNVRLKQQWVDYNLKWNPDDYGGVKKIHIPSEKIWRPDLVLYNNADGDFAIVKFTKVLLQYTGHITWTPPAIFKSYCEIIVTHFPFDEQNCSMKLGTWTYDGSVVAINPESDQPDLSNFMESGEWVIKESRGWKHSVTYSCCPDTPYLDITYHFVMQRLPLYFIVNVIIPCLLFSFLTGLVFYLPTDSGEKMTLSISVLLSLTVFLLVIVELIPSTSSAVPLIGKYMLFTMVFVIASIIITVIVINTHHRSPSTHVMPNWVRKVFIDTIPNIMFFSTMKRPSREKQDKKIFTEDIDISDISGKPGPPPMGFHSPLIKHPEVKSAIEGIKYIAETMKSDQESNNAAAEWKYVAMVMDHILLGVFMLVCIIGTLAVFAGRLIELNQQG
T1 sequence (P11230 24-501 partner): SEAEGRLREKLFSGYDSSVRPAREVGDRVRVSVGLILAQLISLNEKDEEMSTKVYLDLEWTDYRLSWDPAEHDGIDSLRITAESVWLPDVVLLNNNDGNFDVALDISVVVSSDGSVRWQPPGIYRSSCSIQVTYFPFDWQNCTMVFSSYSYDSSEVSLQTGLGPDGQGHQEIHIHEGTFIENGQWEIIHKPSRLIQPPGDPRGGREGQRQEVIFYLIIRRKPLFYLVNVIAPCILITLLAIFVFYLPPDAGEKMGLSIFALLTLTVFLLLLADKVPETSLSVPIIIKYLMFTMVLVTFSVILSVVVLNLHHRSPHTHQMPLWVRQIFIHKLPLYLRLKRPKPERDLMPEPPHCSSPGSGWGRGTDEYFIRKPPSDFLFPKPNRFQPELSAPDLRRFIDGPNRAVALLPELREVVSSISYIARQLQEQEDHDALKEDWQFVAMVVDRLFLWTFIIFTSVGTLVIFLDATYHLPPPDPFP
T1 sequence (Q07001 22-517): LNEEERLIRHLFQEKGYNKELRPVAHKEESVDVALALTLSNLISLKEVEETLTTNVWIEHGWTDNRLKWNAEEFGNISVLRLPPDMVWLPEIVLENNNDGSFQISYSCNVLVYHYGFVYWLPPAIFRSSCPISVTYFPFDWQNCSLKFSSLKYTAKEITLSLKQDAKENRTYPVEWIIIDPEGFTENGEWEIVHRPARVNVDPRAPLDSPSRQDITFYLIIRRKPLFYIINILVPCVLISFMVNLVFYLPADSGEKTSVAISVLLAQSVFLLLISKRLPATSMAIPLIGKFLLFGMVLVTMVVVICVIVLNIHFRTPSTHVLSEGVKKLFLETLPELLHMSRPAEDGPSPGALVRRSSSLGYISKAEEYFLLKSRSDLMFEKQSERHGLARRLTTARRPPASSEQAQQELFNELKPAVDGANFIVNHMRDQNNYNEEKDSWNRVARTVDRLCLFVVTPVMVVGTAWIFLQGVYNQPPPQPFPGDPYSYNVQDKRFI
T1 sequence (P07510 23-517): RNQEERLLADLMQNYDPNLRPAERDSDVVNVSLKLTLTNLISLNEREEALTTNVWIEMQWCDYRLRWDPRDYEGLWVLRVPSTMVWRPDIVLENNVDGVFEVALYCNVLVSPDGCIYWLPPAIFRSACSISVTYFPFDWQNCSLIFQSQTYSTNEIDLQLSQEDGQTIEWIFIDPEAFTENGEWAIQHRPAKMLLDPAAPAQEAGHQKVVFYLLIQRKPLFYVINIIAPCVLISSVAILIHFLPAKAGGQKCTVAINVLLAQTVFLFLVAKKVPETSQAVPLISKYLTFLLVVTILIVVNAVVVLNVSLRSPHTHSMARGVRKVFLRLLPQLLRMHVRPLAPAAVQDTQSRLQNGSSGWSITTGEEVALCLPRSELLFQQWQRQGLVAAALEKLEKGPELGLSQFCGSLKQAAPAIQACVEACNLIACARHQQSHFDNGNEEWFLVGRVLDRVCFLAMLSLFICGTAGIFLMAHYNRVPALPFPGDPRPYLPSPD
T3 sequence (P09483 31-630): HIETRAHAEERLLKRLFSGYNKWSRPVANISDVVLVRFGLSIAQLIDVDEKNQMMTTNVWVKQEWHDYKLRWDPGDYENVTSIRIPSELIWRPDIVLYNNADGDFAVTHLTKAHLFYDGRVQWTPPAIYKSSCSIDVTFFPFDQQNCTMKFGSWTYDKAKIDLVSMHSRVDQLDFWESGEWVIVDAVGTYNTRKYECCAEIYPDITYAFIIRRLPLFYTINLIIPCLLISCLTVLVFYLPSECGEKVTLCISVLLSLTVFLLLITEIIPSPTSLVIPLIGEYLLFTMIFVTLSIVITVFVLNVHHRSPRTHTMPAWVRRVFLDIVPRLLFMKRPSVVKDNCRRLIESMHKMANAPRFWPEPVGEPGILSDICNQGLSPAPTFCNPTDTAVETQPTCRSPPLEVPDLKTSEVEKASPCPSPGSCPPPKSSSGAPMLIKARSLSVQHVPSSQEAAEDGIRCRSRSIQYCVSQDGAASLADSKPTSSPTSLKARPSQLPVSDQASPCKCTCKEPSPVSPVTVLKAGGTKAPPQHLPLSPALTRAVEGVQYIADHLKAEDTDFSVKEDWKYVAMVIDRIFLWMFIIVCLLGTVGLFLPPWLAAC
T3 sequence (P12390 25-500): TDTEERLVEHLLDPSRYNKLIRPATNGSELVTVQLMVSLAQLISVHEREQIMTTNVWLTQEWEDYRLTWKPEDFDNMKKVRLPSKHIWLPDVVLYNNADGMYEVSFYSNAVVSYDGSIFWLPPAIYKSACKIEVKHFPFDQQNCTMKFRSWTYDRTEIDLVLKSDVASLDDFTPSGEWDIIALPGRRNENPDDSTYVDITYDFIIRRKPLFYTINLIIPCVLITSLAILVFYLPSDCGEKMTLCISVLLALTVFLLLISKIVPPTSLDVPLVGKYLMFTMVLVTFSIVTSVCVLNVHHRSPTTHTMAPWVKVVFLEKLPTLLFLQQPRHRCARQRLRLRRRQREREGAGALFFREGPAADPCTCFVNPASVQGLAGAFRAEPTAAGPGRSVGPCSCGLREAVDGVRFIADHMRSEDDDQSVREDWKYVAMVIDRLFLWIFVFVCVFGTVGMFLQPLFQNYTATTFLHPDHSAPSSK
T2 sequence (P04757 26-499): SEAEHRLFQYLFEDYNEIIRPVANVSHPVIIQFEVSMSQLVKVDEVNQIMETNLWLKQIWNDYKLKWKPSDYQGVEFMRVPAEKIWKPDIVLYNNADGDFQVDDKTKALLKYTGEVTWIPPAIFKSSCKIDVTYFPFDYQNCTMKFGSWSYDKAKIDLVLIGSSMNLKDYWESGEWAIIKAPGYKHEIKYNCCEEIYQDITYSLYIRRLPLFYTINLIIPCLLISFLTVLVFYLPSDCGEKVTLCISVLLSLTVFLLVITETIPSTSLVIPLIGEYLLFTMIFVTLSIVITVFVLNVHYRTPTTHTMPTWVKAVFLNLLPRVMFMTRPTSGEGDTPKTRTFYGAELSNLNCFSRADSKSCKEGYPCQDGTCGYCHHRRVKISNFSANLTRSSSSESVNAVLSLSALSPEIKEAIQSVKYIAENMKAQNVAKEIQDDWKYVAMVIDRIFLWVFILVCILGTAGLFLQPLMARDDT
T2 sequence (P12392 21-495): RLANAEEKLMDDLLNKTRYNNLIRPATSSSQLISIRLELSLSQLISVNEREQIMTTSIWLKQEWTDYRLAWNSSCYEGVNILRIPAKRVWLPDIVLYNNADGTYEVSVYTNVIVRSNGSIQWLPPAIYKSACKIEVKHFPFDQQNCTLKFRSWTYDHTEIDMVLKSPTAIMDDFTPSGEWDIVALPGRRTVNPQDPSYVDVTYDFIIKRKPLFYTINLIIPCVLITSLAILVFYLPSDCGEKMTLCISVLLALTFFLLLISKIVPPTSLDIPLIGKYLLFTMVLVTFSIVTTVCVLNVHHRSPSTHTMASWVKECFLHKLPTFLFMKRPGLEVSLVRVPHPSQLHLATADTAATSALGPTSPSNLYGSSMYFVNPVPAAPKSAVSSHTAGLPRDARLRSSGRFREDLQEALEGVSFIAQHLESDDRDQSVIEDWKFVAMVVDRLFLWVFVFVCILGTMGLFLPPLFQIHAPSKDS

Regarding `CN1CCC[C@H]1c1cccnc1` [Sample No. C-1, (S)-(−)-nicotine, reference compound], the “Muscle Effect (% nicotine)” value in data set [1] came to 100 % nicotine. The “Ganglion Effect (% nicotine)” value in data set [2] came out at 100 % nicotine.
As to `CNCC/C=C/c1cncc(OCc2ccccc2)c1` [Sample No. 1, (E)-N-Methyl-4-[3-(5-benzyloxypyridin)yl]-3-buten-1-amine], the Ki (in general, a measure of affinity in units of concentration, obtained from inhibition or displacement) in data set [3] is 0.005 µM. Moreover, the EC50 (usually the concentration at which the effect is half-maximal) in data set [4] (setting [5]) is 4000 nM. Moreover, the “Muscle Effect (% nicotine)” value in data set [1] came to 12 % nicotine. For the same molecule, the “Ganglion Effect (% nicotine)” value in data set [2] was found to be 0 % nicotine.
Consider `NCC/C=C/c1cccnc1.O=C(O)/C=C/C(=O)O.O=C(O)/C=C/C(=O)O` [Sample No. 6, (E)-4-(3-pyridinyl)-3-buten-1-amine difumarate], for which, in data set [3], the Ki is 0.119 µM. Moreover, in data set [4] (setting [5]), the concentration giving a half-maximal response (EC50) came to 5020 nM. Moreover, the Emax (as a rule, the size of the effect at its maximum, as opposed to the concentration needed) in data set [4] came to 81%. Also, the “Muscle Effect (% nicotine)” value in data set [1] turned out to be 15 % nicotine. Moreover, in data set [2], the “Ganglion Effect (% nicotine)” value is recorded as 23 % nicotine.
Regarding `NCC/C=C/c1cncc(Br)c1` (as salt: fumarate) [Sample No. 2, (E)-4-[3-(5-Bromopyridin)yl]-3-buten-1-amine Hemifumarate], the melting point (usually the temperature, or range, at which the solid turns liquid) lay in the range of 175 to 176.5 °C.
Take `CNCC/C=C/c1cncc(N)c1` [Sample No. 9, (E)-N-methyl-4-[3-(5-aminopyridin)yl]-3-buten-1-amine]: in data set [3], the Ki was 0.658 µM. Further, in data set [4] (setting [5]), the EC50 turned out to be 2000 nM. Moreover, in data set [4], the Emax came out at 85%. Moreover, in data set [1], the “Muscle Effect (% nicotine)” value worked out at 4 % nicotine. In addition, in data set [2], the “Ganglion Effect (% nicotine)” value was 4 % nicotine.
Turning to `CCOc1cncc(/C=C/CCNC)c1` [Sample No. 7, (E)-N-Methyl-4-[3-(5-ethoxypyridin)yl]-3-buten-1-amine Sesquifumarate], the Ki in data set [3] is 0.005 µM. Besides, in data set [4] (read-out: Dopamine Release EC50), the EC50 was determined as 276 nM. Also, in data set [4], the Emax worked out at 70%. Besides, in data set [1], the “Muscle Effect (% nicotine)” value is listed as 3 % nicotine. The “Ganglion Effect (% nicotine)” value in data set [2] was less than 15 % nicotine.
As to `CNCC/C=C/c1cncc(-c2ccccc2)c1` [Sample No. 8, (E)-N-Methyl-4-[3-(5-phenylpyridin)yl]-3-buten-1-amine], in data set [3], the Ki was 0.184 µM. Besides, the EC50 in data set [4] (setting [5]) was greater than 100000 nM. Further, in data set [1], the “Muscle Effect (% nicotine)” value came to 8 % nicotine. Also, the “Ganglion Effect (% nicotine)” value in data set [2] is on record as 0 % nicotine.
For the molecule `CNCC/C=C/c1cncc(COC)c1` [Sample No. 5, (E)-N-Methyl-4-[3-(5-methoxymethylpyridin)yl]-3-buten-1-amine], the Ki in data set [3] is 0.13 µM. The concentration for a half-maximal effect (EC50) in data set [4] (setting [5]) was found to be 16000 nM. In data set [1], the “Muscle Effect (% nicotine)” value amounted to 13 % nicotine. The “Ganglion Effect (% nicotine)” value in data set [2] was found to be 0 % nicotine.
As to `CNCC/C=C/c1cncc(OC(C)C)c1` [Sample No. 4, (E)-N-Methyl-4-[3-(5-isopropoxypyridin)yl]-3-buten-1-amine], the Ki in data set [3] is 0.006 µM. In addition, in data set [1], the “Muscle Effect (% nicotine)” value is listed as 8 % nicotine. Besides, the “Ganglion Effect (% nicotine)” value in data set [2] was less than 15 % nicotine.
As to `NCC/C=C/c1cncc(Br)c1` [Sample No. 2, (E)-4-[3-(5-Bromopyridin)yl]-3-buten-1-amine Hemifumarate], the Ki in data set [3] is 0.079 µM. Also, in data set [4] (setting [5]), the EC50 was 2400 nM. The Emax in data set [4] is 107%. Also, in data set [1], the “Muscle Effect (% nicotine)” value was found to be 8 % nicotine. Also, the “Ganglion Effect (% nicotine)” value in data set [2] is recorded as 11 % nicotine.
`CNCC/C=C/c1cncc(Oc2ccccc2)c1` [Sample No. 3, (E)-N-Methyl-4-[3-(5-phenoxypyridin)yl]-3-buten-1-amine]: the Ki in data set [3] was 0.021 µM. For the same molecule, the EC50 in data set [4] (setting [5]) was determined as 114 nM. The “Muscle Effect (% nicotine)” value in data set [1] turned out to be 5 % nicotine. Besides, the “Ganglion Effect (% nicotine)” value in data set [2] was less than 15 % nicotine.
